Entries after “also recorded” stand apart in the source; their conditions may differ.
Legend:
[1] = test system: hippocampal CA3 pyramidal neurons; experiment: Whole-cell voltage clamp recordings of sEPSCs in offspring after maternal pretreatment; format: in vivo, rat; settings: P15 VPA rats, maternal bumetanide pretreatment; −70 mV; result in words
Procedure: Standard whole-cell recordings were performed in coronal neocortical rat or mouse brain slices at room temperature (20-22° C.) from the soma of hippocampal CA3 neurons using an EPC-10 (HEKA Elektronik, Germany) amplifier and filtered at 3-10 kHz. The internal solution contained (in mM): 130 K-gluconate, 10 Na-gluconate, 4 NaCl, 4 MgATP, 4 phosphocreatine, 10 HEPES, and 0.3 GTP (pH 7.3 with KOH). Biocytin (final concentration 0.3-0.5%) was added to the pipette solution to label the neurons from which recordings were obtained. Neurons were visualized by using infrared DIC video microscopy. Spontaneous postsynaptic currents were recorded for […] at the reversal potentials for […] currents (−70 mV). It should be specifically noted that all recordings were made in normal ACSF (1.3 mM MgCl2). Stored data were analyzed using the Mini Analysis 6.0.3 (Synaptosoft Inc., Chapell Hill, N.C.) and Origin (MicroCal, Northampton, Mass.) software. To minimize potential sampling bias, the pups from at least three deliveries for each condition were studied. Data are expressed as mean±S.E.M.
Bumetanide (10 μM), Oxytocin (1 μM) and Isoguvacine (2 μM) were directly added to the perfusion solutions. Bumetanide pretreatment (2-2.5 mg/kg) was given to the dams in drinking water. All drugs used were purchased from Sigma. […]

[2] = test system: hippocampal CA3 pyramidal cells; experiment: Acute application of bumetanide to hippocampal slices: DFGABA from cell-attached single GABAA channel recordings; format: cell-based, rat; settings: acute bumetanide 10 μM
Procedure: Time-mated female Wistar rats at gestational day E7-8 were housed under standard laboratory conditions. […] The offspring were used for experiments on embryonic day 20 (E20) and postnatal (P) days 0, 2, 4, 7, 15 and 30 (after being weaned at P23). Experiments were carried out on offspring of either sex.
Hippocampal slices (300-500 nm thick) were prepared using a Microm tissue slicer (International GmbH, Germany) as described previously (Tyzio et al. 2006 Science 314, 1788; Tyzio et al, 2008, Eur J. Neurosci. 27(10):2515-28). Slices were kept in oxygenated (95% O2/5% CO2) artificial cerebrospinal fluid (ACSF) of the following composition (in mM): NaCl 126, KCl 3.5, CaCl2 2.0, MgCl2 1.3, NaHCO3 25, NaH2PO4 1.2 and glucose 11 (pH 7.4) at room temperature (20-22° C.) at least 1 hour before use.
For recordings, slices were placed into a conventional fully submerged chamber superfused with ACSF at a rate of 2-3 ml/min at room temperature. Patch clamp recordings from visually identified CA3 pyramidal cells in cell-attached configuration were performed using EPC-10 amplifier (HEKA Elektronik Dr. Schulze GmbH, Lambrecht/Pfalz, Germany). Patch pipette solution for recordings of single GABAA channels contained (in mM): NaCl 120, KCl 5, TEA-Cl 20, 4-aminopyridine 5, CaCl2 0.1, MgCl2 10, glucose 10, Hepes-NaOH 10 buffered to pH 7.2-7.3 and GABA 2 μM. Analysis of currents through single channels and current-voltage relationships were performed using Clampfit 9.2 (Axon Instruments, Union City, Calif.). Recordings were digitized (10 kHz) online with Digidata-1200 interface card (Axon Instruments, Union City, Calif.) and analyzed offline with Axon package, MiniAnalysis (S (Synaptsoft, Decatur, Ga.), and Origin (Microcal Software, Northampton, Mass.).
Bumetanide (10 μM), Oxytocin (1 μM) and Isoguvacine (2 μM) were directly added to the perfusion solutions. […] All drugs used were purchased from Sigma.

[3] = test system: Valproate rat model of autism; experiment: Isolation-induced ultrasonic vocalizations; format: in vivo
Procedure: Time-mated female Wistar rats at gestational day E7-8 were housed under standard laboratory conditions. The in utero valproic acid (VPA) rodent model of autism spectrum disorders has been previously described in detail. Briefly, the sodium salt of VPA (Sigma-Aldrich) was dissolved in physiological saline solution to a concentration of 300 mg/ml. Pregnant rats received a single intra-peritoneal dose of 600 mg/kg on gestational day 12 (E12). The control dams received a single similar volume injection of saline at the same gestational time-point. Dams were housed individually and allowed to raise their own litters. The offspring were used for experiments on embryonic day 20 (E20) and postnatal (P) days 0, 2, 4, 7, 15 and 30 (after being weaned at P23). Experiments were carried out on offspring of either sex.
To induce ultrasonic vocalizations, […], and were placed into an isolation box (23×28×18 cm) located inside a sound attenuating isolation cubicle (54×57×41 cm; Coulbourn Instruments, Allentown, Pa., USA), and evaluated for ultrasonic vocalizations during a three minutes test. An ultrasound microphone (Avisoft UltraSoundGate Condenser microphone capsule CM16/CMPA, Avisoft Bioacoustics, Berlin, Germany), placed in the roof of the box, was sensitive to frequencies of 10 to 250 kHz. Vocalizations were recorded using the Avisoft Recorder software (version 4.2) with a sampling rate of 250 kHz in 16 bit format. For acoustical analysis, recordings were transferred to SASLab Pro (version 5.2; Avisoft Bioacoustics) and a fast Fourier transformation was conducted (512 FFT-length, 100% frame, Hamming window and 75% time window overlap). The accuracy of call detection was verified manually by an educated user. A Pearson correlation coefficient was computed to assess the relationship between Automatic and Manual analysis. There was 0.99 correlation between the two variables.
(§1) Bumetanide (10 μM), Oxytocin (1 μM) and Isoguvacine (2 μM) were directly added to the perfusion solutions. Bumetanide pretreatment (2-2.5 mg/kg) was given to the dams in drinking water. All drugs used were purchased from Sigma. SSR126768A (Sanofi-Synthelabo) pretreatment (1 mg/kg) was given to the dams in drinking water.

hippocampal slices = experiment: Effects of isoguvacine on spike frequency, extracellular field potential recordings in hippocampal slices; format: cell-based, rat; settings: for Effects of isoguvacine on frequency of spikes in extracellular recordings (% of control), mean ± S.E.: VPA rats with maternal bumetanide pretreatment, P15
Procedure: Experiments were performed on fetuses and neonatal rat pups. We removed E20 rats from deeply anesthetized dams [subcutaneous injection of a mixture of xylazine (Rompun 2%; used at 0.05%) and ketamine (Imalgene 1000 used at 50 g/l)]. Hippocampal slices ([…] thick) were prepared using a Microm tissue slicer (International GmbH, Germany) as described previously (Tyzio et al. 2006 Science 314, 1788; Tyzio et al, 2008, Eur J. Neurosci. 27(10):2515-28). Slices were kept in oxygenated (95% O2/5% CO2) artificial cerebrospinal fluid (ACSF) of the following composition (in mM): NaCl 126, KCl 3.5, CaCl2 2.0, MgCl2 1.3, NaHCO3 25, NaH2PO4 1.2 and glucose 11 (pH 7.4) at room temperature (20-22° C.) at least 1 hour before use.
Extracellular field potentials and multi-unit activity (MUA) recordings Recording were made in the hippocampal slices using tungsten wire electrodes (diameter: 50 μm, California Fine Wire, Grover Beach, Calif.) and a low-noise multichannel DAM-8A amplifiers (WPI, GB; […]; gain: ×1000). The signals were digitized using an analogue-to-digital converter (Digidata 1440A, Axon Instruments, USA). pCLAMP 10.1, Clampfit 10.1 (Axon Instruments, USA), MiniAnalysis 6.03 (Synaptosoft, Decatur, Calif.) and Origin 7.5 (Microcal Software, USA) programs were used for the acquisition and analysis of the synaptic activities. Sampling interval per signal was 100 microseconds (10 kHz).
as §1

[4] = P4 VPA rats + maternal BUM pretreatment
[5] = P4 control rats + maternal BUM pretreatment

In the case of CCCCNc1cc(C(=O)O)cc(S(N)(=O)=O)c1Oc1ccccc1 [bumetanide], the sEPSCs frequency [1] is reported as “decreases; also recorded: significantly reduced”, the “[Cl−]i” value ([2]; P0 VPA neurons, result in words) is reported as “significantly decreased” and the “DFGABA mV), mean±” value ([2]; P0 VPA rats) is reported as −2.4 ± 1.2 (n = 21) mV. The “DFGABA mV), mean±” value ([2]; P0 control rats) was −5.3 ± 0.7 (n = 17) mV, the “behavioral deficit (smaller number and shorter total duration of calls)” value ([3]; P4 VPA offspring, maternal bumetanide pretreatment, result in words) was “rescued this behavioral deficit” and the “Number of calls, isolation-induced USVs mean ± S.E.M” value [3, 4] was 56 ± 25 (n = 20). The “Total duration of calls, isolation-induced USVs mean ± S.E.M” value [3, 4] was 4 ± 2 (n = 20), the “Number of calls, isolation-induced USVs mean ± S.E.M” value [3, 5] was 62.6 ± 27.4 (n = 18) and the “Total duration of calls, isolation-induced USVs mean ± S.E.M” value [3, 5] was 4.6 ± 2.3 (n = 18). For the same compound, the “excitatory actions of the GABAAR agonist isoguvacine” value (hippocampal slices; P15 VPA offspring, maternal bumetanide pretreatment, result in words) was “suppressed the excitatory actions”, the “Effects of isoguvacine on frequency of spikes in extracellular recordings (% of control), mean ± S.E.” value (hippocampal slices) was 82.8±10.7 % of control and the “Effects of isoguvacine on frequency of spikes in extracellular recordings (% of control), mean ± S.E.” value (hippocampal slices; listed as BUM) was 82.8 ± 10.7 (n = 9), P < 0.05 % of control.
